Consider 1 substance from article PMC8574098 (Journal of natural products, 2021).

By IC50 is commonly meant the concentration needed to halve the response being measured. High values mean weaker potency, low ones greater potency.

The assay concerns the target matrix metalloproteinase-3 (MMP-3) (Homo sapiens, UniProt P08254). The assay can be described thus: MMP-3 enzyme inhibition assay. It is filed as biochemical.

Sequence of matrix metalloproteinase-3 (MMP-3) (P08254 100-477): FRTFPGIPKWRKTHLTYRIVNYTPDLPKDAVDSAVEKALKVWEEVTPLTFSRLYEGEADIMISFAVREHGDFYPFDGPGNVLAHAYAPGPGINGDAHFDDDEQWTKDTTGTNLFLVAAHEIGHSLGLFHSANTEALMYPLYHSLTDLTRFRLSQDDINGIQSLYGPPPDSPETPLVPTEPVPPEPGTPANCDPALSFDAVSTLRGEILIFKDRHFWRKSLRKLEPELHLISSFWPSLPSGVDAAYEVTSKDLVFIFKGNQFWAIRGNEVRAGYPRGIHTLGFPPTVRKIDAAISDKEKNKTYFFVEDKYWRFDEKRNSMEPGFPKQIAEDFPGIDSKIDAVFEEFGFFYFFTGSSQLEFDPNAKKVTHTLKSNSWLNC

As for berkeleypenostatin E [compound 5], the IC50 is 50 µM.
